Laboratory results from ChEMBL document CHEMBL3425491, “Development of novel ACK1/TNK2 inhibitors using a fragment-based approach” (J Med Chem, 2015).
In brackets after ≈: the same amount, converted by molar mass. Blank lines part the entries; values can stand above or below the compound they belong to. Activity calls are given as the source filed them. No cut-off for these calls is given here.

Legend:
[1] = biological target: T1, Activated CDC42 kinase 1 (Homo sapiens, UniProt Q07912); assay: Inhibition of human ACK1 kinase activity using biotinylated ATGRYYAMKIL - AKT peptide substrate assessed as phosphorylation at 10 uM by ELISA; type: single protein
Target sequence in this assay (Q07912 whole entry, looked up): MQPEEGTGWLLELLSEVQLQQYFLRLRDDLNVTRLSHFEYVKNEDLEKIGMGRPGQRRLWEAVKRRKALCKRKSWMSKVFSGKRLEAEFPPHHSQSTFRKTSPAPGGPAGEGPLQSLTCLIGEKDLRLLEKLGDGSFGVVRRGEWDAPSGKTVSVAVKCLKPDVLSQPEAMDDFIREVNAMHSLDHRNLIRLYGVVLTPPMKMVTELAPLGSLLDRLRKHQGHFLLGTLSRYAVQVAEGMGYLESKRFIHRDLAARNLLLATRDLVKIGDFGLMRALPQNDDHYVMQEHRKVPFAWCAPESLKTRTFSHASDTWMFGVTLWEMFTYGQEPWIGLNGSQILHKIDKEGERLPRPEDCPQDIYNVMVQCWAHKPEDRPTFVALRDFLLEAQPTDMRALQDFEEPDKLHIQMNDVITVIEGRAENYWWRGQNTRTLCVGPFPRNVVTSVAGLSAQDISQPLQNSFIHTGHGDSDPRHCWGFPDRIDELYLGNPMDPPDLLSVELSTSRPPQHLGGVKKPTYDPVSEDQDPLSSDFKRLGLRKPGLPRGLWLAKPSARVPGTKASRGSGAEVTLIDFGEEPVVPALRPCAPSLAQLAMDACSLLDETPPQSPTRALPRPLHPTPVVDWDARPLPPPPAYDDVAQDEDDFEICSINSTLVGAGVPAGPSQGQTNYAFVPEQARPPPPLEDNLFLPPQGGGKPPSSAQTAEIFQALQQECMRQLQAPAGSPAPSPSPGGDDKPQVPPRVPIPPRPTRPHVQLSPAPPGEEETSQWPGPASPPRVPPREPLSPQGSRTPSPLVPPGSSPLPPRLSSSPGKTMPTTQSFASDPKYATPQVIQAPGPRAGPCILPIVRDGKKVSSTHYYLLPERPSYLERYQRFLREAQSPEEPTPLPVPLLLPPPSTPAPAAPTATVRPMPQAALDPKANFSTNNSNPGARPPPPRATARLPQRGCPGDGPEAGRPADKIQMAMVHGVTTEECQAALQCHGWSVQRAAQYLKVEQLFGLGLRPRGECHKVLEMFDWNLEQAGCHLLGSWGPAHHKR

[2] = biological target: T1, Activated CDC42 kinase 1; assay: Inhibition of ACK1 kinase (unknown origin)
Target sequence in this assay (Q07912 whole entry): as the sequence (Q07912 whole entry, looked up) above

[3] = biological target: Ribosomal protein S6 kinase beta-1 (Homo sapiens) (UniProt P23443); assay: Inhibition of human p70S6K/RPS6KB1 using KKRNRTLTK peptide substrate at 1 uM by 33P Hotspot assay
[4] = biological target: Platelet-derived growth factor receptor alpha (Homo sapiens) (UniProt P16234); assay: Inhibition of human PDGFRalpha using poly[Glu:Tyr] (4:1) peptide substrate at 1 uM by 33P Hotspot assay
[5] = biological target: Serine/threonine-protein kinase Sgk1 (Homo sapiens) (UniProt O00141); assay: Inhibition of human SGK1 using KGSGSGRPRTSSFAEG peptide substrate at 1 uM by 33P Hotspot assay
[6] = biological target: Hepatocyte growth factor receptor (Homo sapiens) (UniProt P08581); assay: Inhibition of human c-MET using KKKSPGEYVNIEFG peptide substrate at 1 uM by 33P Hotspot assay
[7] = biological target: Glycogen synthase kinase-3 alpha (Homo sapiens) (UniProt P49840); conditions: at 1 µM
[8] = biological target: Angiopoietin-1 receptor (Homo sapiens) (UniProt Q02763); assay: Inhibition of human TIE2/TEK using poly[Glu:Tyr] (4:1) peptide substrate at 1 uM by 33P Hotspot assay
[9] = biological target: Insulin receptor (Homo sapiens) (UniProt P06213); assay: Inhibition of human IR using poly[Glu:Tyr] (4:1) peptide substrate at 1 uM by 33P Hotspot assay
[10] = biological target: Ephrin type-A receptor 2 (Homo sapiens) (UniProt P29317); assay: Inhibition of human EPHA2 using poly[Glu:Tyr] (4:1) peptide substrate at 1 uM by 33P Hotspot assay
[11] = biological target: Inhibitor of nuclear factor kappa-B kinase subunit alpha (Homo sapiens) (UniProt O15111); assay: Inhibition of human IKKa/CHUK using KKKKERLLDDRHDSGLDSMKDEE peptide substrate at 1 uM by 33P Hotspot assay
[12] = biological target: Serine/threonine-protein kinase pim-1 (Homo sapiens) (UniProt P11309); assay: Inhibition of human PIM1 using KKRNRTLTK peptide substrate at 1 uM by 33P Hotspot assay
[13] = biological target: T2, Non-receptor tyrosine-protein kinase TYK2 (Homo sapiens, UniProt P29597); assay: Inhibition of human TYK2 using KKSRGDYMTMQIG peptide substrate at 1 uM by 33P Hotspot assay
[14] = biological target: T3, Tyrosine-protein kinase JAK2 (Homo sapiens, UniProt O60674); assay: Inhibition of human JAK2 using poly[Glu:Tyr] (4:1) peptide substrate by 33P Hotspot assay
[15] = biological target: Epidermal growth factor receptor (Homo sapiens) (UniProt P00533); assay: Inhibition of human EGFR using poly[Glu:Tyr] (4:1) peptide substrate at 1 uM by 33P Hotspot assay
[16] = biological target: Mitogen-activated protein kinase 3 (Homo sapiens) (UniProt P27361); assay: Inhibition of human ERK1 using myelin basic protein substrate at 1 uM by 33P Hotspot assay
[17] = biological target: Wee1-like protein kinase (Homo sapiens) (UniProt P30291); assay: Inhibition of human WEE1 using myelin basic protein substrate at 1 uM by 33P Hotspot assay
[18] = Solubility in PBS with 10% DMSO; type: physicochemical; conditions: buffer
[19] = biological target: Tyrosine-protein kinase ABL1 (Homo sapiens, UniProt P00519); assay: Inhibition of human ABL1 using EAIYAAPFAKKK peptide substrate by 33P Hotspot assay
[20] = biological target: T3, Tyrosine-protein kinase JAK2; assay: Inhibition of human JAK2 using poly[Glu:Tyr] (4:1) peptide substrate at 1 uM by 33P Hotspot assay
[21] = cells; conditions: Homo sapiens, VCaP, 72 h
[22] = biological target: Receptor tyrosine-protein kinase erbB-2 (Homo sapiens) (UniProt P04626); assay: Inhibition of human ERBB2/HER2 using poly[Glu:Tyr] (4:1) peptide substrate at 1 uM by 33P Hotspot assay
[23] = biological target: Tyrosine-protein kinase receptor UFO (Homo sapiens) (UniProt P30530); assay: Inhibition of human AXL using EAIYAAPFAKKK peptide substrate at 1 uM by 33P Hotspot assay
[24] = biological target: T4, Fibroblast growth factor receptor 1 (Homo sapiens, UniProt P11362); assay: Inhibition of human FGFR1 using KKKSPGEYVNIEFG peptide substrate at 1 uM by 33P Hotspot assay
[25] = test system: LAPC4; assay: Anticancer activity against human LAPC4 cells assessed as inhibition of cell growth up to 10 uM after 72 hrs by trypan blue exclusion assay; type: functional, cell-based
[26] = biological target: Serine/threonine-protein kinase Chk1 (Homo sapiens) (UniProt O14757); assay: Inhibition of human CHK1 using KKKVSRSGLYRSPSMPENLNRPR peptide substrate at 1 uM by 33P Hotspot assay
[27] = biological target: RAF proto-oncogene serine/threonine-protein kinase (Homo sapiens) (UniProt P04049); assay: Inhibition of human RAF1 using MEK1 (K97R) peptide substrate at 1 uM by 33P Hotspot assay
[28] = biological target: Tyrosine-protein kinase Lck (Homo sapiens, UniProt P06239)
[29] = biological target: Tyrosine-protein kinase CSK (Homo sapiens) (UniProt P41240); assay: Inhibition of human CSK using poly[Glu:Tyr] (4:1) peptide substrate at 1 uM by 33P Hotspot assay
[30] = biological target: T2, Non-receptor tyrosine-protein kinase TYK2; assay: Inhibition of human TYK2 using KKSRGDYMTMQIG peptide substrate by 33P Hotspot assay
[31] = biological target: Proto-oncogene tyrosine-protein kinase ROS (Homo sapiens, UniProt P08922); assay: Inhibition of human ROS/ROS1 using KKKSPGEYVNIEFG peptide substrate by 33P Hotspot assay
[32] = biological target: Tyrosine-protein kinase BTK (Homo sapiens) (UniProt Q06187); assay: Inhibition of human BTK using […] peptide substrate at 1 uM by 33P Hotspot assay
[33] = biological target: Serine/threonine-protein kinase Chk1 (Homo sapiens, UniProt O14757); assay: Inhibition of human CHK1 using KKKVSRSGLYRSPSMPENLNRPR peptide substrate by 33P Hotspot assay
[34] = biological target: Tyrosine-protein kinase FRK (Homo sapiens) (UniProt P42685); assay: Inhibition of human FRK/PTK5 using poly[Glu:Tyr] (4:1) peptide substrate at 1 uM by 33P Hotspot assay
[35] = biological target: High affinity nerve growth factor receptor (Homo sapiens) (UniProt P04629); assay: Inhibition of human TRKA using poly[Glu:Tyr] (4:1) peptide substrate at 1 uM by 33P Hotspot assay
[36] = biological target: RAC-alpha serine/threonine-protein kinase (Homo sapiens) (UniProt P31749); assay: Inhibition of human AKT1 using KGSGSGRPRTSSFAEG peptide substrate at 1 uM by 33P Hotspot assay
[37] = biological target: Vascular endothelial growth factor receptor 2 (Homo sapiens) (UniProt P35968); assay: Inhibition of human KDR/VEGFR2 using poly[Glu:Tyr] (4:1) peptide substrate at 1 uM by 33P Hotspot assay
[38] = biological target: Serine/threonine-protein kinase TBK1 (Homo sapiens) (UniProt Q9UHD2); assay: Inhibition of human TBK1 using KRRRAL[pS]VASLPGL peptide substrate at 1 uM by 33P Hotspot assay
[39] = biological target: Serine/threonine-protein kinase mTOR (Homo sapiens) (UniProt P42345); assay: Inhibition of human mTOR/FRAP1 using 4EBP1 peptide substrate at 1 uM by 33P Hotspot assay
[40] = test system: LNCaP; assay: cells; conditions: Homo sapiens, 72 h
[41] = test system: Plasma; assay: Half life in human plasma; type: ADME, cell-free
[42] = biological target: Mitogen-activated protein kinase kinase kinase 8 (Homo sapiens) (UniProt P41279); assay: Inhibition of human COT1/MAP3K8 using MEK1 (K97R) substrate at 1 uM by 33P Hotspot assay
[43] = biological target: T4, Fibroblast growth factor receptor 1; assay: Inhibition of human FGFR1 using KKKSPGEYVNIEFG peptide substrate by 33P Hotspot assay

T2 sequence (P29597 whole entry): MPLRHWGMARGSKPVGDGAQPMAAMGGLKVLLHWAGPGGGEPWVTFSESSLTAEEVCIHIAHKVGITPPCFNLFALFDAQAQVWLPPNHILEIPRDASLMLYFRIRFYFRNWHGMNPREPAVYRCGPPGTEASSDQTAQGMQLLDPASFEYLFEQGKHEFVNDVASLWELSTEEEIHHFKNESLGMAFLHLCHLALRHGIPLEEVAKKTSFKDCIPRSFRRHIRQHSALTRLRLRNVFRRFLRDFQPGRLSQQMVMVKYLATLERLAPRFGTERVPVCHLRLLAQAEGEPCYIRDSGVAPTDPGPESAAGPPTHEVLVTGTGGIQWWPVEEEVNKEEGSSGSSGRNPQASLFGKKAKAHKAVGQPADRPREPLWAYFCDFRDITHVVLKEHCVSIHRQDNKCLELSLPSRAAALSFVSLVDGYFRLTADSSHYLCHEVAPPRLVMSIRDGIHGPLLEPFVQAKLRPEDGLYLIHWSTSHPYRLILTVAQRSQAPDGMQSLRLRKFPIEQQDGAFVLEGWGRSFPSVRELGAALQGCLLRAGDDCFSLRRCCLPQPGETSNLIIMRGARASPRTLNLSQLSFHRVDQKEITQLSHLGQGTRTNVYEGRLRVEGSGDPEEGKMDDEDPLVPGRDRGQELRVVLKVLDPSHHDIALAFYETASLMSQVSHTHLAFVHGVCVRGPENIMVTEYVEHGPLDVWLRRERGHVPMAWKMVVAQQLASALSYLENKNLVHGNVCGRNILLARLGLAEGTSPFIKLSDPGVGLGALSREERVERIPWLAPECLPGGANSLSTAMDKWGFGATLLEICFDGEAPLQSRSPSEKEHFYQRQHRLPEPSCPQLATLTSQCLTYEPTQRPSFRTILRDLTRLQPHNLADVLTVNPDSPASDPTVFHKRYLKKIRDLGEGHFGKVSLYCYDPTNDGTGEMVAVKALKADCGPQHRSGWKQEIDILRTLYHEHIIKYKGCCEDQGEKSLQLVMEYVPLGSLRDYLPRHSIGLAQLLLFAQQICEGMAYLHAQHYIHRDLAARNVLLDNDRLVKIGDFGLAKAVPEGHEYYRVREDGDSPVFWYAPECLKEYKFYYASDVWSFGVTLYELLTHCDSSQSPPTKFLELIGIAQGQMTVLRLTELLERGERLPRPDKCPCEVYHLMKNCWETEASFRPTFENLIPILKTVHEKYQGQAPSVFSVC
T3 sequence (O60674 whole entry): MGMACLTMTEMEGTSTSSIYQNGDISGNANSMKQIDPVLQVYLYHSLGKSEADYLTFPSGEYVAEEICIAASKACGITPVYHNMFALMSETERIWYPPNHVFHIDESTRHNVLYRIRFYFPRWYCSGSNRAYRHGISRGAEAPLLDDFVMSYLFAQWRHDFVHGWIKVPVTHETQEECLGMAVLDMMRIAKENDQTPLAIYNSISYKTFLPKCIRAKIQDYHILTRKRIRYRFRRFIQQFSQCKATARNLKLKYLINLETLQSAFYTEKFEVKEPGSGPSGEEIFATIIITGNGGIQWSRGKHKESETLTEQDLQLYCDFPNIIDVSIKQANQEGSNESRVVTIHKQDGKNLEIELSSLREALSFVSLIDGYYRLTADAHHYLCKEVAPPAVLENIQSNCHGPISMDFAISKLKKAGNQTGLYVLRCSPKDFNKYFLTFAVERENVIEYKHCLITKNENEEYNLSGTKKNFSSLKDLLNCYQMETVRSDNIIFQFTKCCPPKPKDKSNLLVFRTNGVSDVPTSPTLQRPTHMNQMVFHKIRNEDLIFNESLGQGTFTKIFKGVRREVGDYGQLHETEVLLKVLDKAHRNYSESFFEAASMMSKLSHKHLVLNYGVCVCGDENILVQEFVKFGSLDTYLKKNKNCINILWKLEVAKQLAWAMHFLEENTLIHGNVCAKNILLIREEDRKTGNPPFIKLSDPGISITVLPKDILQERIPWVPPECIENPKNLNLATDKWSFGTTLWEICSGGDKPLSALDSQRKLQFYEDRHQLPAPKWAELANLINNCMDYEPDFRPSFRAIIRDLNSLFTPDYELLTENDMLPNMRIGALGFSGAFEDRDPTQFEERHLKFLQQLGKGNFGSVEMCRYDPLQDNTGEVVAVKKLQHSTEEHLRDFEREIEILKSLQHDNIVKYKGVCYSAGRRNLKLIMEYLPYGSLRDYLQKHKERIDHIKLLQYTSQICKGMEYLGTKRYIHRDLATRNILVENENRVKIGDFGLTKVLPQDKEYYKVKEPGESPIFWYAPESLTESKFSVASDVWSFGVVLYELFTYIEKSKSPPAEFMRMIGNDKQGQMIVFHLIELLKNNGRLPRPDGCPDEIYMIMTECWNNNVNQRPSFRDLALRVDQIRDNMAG
Tyrosine-protein kinase receptor UFO (Homo sapiens), sequence (P30530 whole entry): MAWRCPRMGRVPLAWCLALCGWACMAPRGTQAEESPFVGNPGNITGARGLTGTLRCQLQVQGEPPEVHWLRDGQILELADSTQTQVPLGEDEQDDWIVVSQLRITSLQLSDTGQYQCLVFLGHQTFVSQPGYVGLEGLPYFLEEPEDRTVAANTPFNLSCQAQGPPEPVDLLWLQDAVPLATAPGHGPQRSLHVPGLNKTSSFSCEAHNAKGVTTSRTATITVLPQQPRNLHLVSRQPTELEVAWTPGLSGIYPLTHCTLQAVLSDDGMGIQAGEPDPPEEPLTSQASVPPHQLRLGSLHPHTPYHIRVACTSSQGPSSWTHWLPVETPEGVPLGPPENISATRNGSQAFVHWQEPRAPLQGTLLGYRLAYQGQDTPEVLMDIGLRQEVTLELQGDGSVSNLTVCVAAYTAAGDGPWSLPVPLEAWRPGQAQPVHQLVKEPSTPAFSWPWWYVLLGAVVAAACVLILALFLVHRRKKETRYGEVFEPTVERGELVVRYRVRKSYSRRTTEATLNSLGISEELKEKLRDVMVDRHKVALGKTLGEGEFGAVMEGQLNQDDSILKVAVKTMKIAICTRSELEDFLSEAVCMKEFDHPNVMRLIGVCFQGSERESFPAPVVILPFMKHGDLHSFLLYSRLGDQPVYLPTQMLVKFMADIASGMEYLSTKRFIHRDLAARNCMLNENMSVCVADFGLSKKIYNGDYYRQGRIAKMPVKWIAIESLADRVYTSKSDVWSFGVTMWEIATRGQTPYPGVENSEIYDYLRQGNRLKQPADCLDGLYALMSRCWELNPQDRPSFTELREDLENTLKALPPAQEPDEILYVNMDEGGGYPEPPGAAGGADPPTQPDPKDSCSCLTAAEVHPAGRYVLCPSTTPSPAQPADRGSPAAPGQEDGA
Wee1-like protein kinase (Homo sapiens), sequence (P30291 whole entry, looked up): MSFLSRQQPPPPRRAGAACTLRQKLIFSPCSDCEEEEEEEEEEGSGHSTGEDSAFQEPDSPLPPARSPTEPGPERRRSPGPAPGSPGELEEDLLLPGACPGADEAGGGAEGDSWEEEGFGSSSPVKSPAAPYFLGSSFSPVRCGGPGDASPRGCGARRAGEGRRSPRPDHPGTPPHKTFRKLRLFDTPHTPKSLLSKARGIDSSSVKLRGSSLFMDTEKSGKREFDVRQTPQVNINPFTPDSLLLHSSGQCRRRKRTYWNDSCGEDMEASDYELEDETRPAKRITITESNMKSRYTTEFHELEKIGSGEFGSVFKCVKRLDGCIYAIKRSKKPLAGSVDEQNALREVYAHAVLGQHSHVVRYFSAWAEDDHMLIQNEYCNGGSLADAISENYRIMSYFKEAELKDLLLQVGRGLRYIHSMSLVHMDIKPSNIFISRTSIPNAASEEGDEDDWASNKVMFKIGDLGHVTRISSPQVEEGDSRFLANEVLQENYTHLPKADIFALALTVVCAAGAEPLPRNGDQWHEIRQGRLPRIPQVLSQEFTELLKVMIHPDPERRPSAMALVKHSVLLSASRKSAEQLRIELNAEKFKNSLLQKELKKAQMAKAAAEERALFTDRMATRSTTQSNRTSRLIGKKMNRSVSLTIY

Structure (SMILES): Clc1cnc(Nc2ccc(N3CCNCC3)cc2)nc1NCC1CCCO1 (racemic)
- inhibition [1]: 82%

Structure (SMILES): COC(C)(C)CCn1nc(Nc2c(C)cccc2C)c2cnc(Nc3ccccc3)nc21
- IC50 [2]: 2 nM

Structure (SMILES): O=C(O)CCCc1ccc(Nc2ncc(Cl)c(NCC3CCCO3)n2)cc1 (stereo not given)
- inhibition [1]: 60%

Structure (SMILES): O=C(O)Cc1ccc(Nc2ncc(Cl)c(NCC3CCCO3)n2)cc1 (stereo not given)
- inhibition [1]: 76.5%

Structure (SMILES): CN1CCN(c2ccc(Nc3ncc(Cl)c(NC[C@H]4CCCO4)n3)cc2)CC1
- inhibition [3]: 24.1%
- inhibition [4]: 42.7%
- inhibition [5]: 26%
- inhibition [6]: 23.1%
- inhibition [7]: 5.1%
- inhibition [8]: 32%
- inhibition [9]: 46.6%
- inhibition [10]: 31.9%
- inhibition [11]: 0.4%
- inhibition [12]: 3.6%
- inhibition [13]: 98.9%
- IC50 [14]: 6 nM
- inhibition [15]: -2.8%
- inhibition [16]: 1.9%
- inhibition [17]: 12.4%
- solubility [18]: 1000 µg/mL (≈ 2480 µM)
- IC50 [19]: 206 nM
- inhibition [20]: 98.6%
- IC50 [21]: 2000 nM
- inhibition [22]: -1.1%
- inhibition [23]: 75.9%
- inhibition [24]: 86.4%
- inhibition [25]: Active
- inhibition [26]: 84.8%
- inhibition [27]: -0.8%
- IC50 [28]: 136 nM
- inhibition [29]: 26.3%
- IC50 [30]: 5 nM
- IC50 [31]: 124 nM
- inhibition [32]: 45.1%
- IC50 [33]: 154 nM
- inhibition [34]: 41.3%
- inhibition [35]: 63.2%
- inhibition [36]: 4.7%
- inhibition [37]: 67.3%
- inhibition [38]: 71.8%
- inhibition [39]: -5.6%
- IC50 [40]: 1800 nM
- t1/2 [41]: > 6 h
- inhibition [42]: -7.7%
- IC50 [43]: 160 nM

Structure (SMILES): Brc1cnc(Nc2ccc(C3CCNCC3)cc2)nc1NCC1CCCO1 (racemic)
- inhibition [1]: 84.5%

Structure (SMILES): Brc1cnc(Nc2ccc(N3CCOCC3)cc2)nc1NCC1CCCO1 (racemic)
- inhibition [1]: 89%

Structure (SMILES): c1ccc(-c2oc3ncnc(NC[C@@H]4CCCO4)c3c2-c2ccccc2)cc1
- inhibition [25]: Active

Structure (SMILES): CN(C)CCNC(=O)CCc1ccc(Nc2ncc(Cl)c(NCC3CCCO3)n2)cc1 (stereo not given)
- inhibition [1]: 68%

Structure (SMILES): Clc1cnc(Nc2ccc(C3CCNCC3)cc2)nc1NCC1CCCO1 (racemic)
- inhibition [1]: 79.5%

Other lines, results leading:

- inhibition [1]: 97%
Structure (SMILES): O=C(Nc1c(F)cccc1Cl)c1cnc(Nc2ccc(C3CCNCC3)cc2)nc1NCC1CCCO1 (racemic)

- inhibition [1]: 89.5%
Structure (SMILES): O=C(Nc1c(F)cccc1Cl)c1cnc(Nc2ccc(N3CCNCC3)cc2)nc1NCC1CCCO1 (racemic)

- inhibition [1]: 90.5%
Structure (SMILES): CN1CCN(c2ccc(Nc3ncc(Cl)c(NCC4CCCO4)n3)cc2)CC1 (racemic)

- inhibition [1]: 93%
Structure (SMILES): CN1CCN(c2ccc(Nc3ncc(Br)c(NCC4CCCO4)n3)cc2)CC1 (stereo not given)

- inhibition [1]: 97%
Structure (SMILES): CN1CCN(c2ccc(Nc3ncc(C(=O)Nc4c(F)cccc4Cl)c(NCC4CCCO4)n3)cc2)CC1 (stereo not given)
